Reference: patent US11213525B2, “Linear glycosidase inhibitors” (Asceneuron SA, priority 2017, dated 2022)

Biological target: His-Tagged hOGA (human O-GlcNAcase) (Homo sapiens (Human), UniProt O60502)
Assay: Human O-GlcNAcase enzyme inhibition assay
Type: biochemical
Conditions: 20 nM His-Tagged hOGA, 10 μM FL-GlcNAc, 60 min at room temperature, pH 6.5; activity classes defined in μM; read-out: Enzymatic OGA IC50
Procedure: Then, 20 nM of His-Tagged hOGA and 10 μM of FL-GlcNAc (Fluorescein mono-beta-D-(2-deoxy-2-N-acetyl) glucopyranoside; Marker Gene Technologies Inc, M1485) were added to the 384-well plate for a final volume of 20 μl.

Chain of His-Tagged hOGA (human O-GlcNAcase) (O60502 whole entry): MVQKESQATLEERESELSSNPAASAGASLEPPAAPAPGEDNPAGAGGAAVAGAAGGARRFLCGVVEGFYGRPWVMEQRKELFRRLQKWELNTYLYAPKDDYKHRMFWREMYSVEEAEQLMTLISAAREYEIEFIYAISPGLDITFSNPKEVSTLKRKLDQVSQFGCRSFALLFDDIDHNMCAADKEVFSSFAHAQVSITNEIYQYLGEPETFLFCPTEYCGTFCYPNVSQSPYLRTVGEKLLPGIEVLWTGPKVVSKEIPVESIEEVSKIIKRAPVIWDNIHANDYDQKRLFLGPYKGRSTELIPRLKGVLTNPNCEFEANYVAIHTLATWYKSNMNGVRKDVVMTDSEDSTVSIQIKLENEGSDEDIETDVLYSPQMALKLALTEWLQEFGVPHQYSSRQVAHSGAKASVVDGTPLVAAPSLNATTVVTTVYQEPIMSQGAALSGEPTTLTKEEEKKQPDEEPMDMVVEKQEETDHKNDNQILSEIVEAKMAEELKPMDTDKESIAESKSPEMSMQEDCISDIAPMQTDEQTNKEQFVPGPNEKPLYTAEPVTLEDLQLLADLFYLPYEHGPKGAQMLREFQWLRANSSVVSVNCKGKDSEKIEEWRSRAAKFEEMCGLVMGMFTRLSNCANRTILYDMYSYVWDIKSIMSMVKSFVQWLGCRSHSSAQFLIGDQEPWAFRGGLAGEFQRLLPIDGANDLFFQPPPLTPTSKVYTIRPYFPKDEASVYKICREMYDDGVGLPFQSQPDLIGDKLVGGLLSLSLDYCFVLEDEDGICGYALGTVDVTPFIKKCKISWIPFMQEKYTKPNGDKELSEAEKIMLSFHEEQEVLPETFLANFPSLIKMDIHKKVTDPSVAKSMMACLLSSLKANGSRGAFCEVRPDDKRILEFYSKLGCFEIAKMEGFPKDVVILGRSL

Row | SMILES | IC50
1 | CC(c1ccc2c(c1)OCC2)N1CCN(C(=O)NC2CCOC2)CC1 (racemic) [Example 18, 4-(1-(2,3-dihydrobenzofuran-6-yl)ethyl)-N-(tetrahydrofuran-3-yl)piperazine-1-carboxamide] | 0.05 to 0.2 µM
2 | CC(c1ccc2c(c1)OCC2)N1CCC(Oc2cccnc2)CC1 (single isomer, unassigned) [Example 39] | 1 to 10 µM
3 | CC(c1ccc2c(c1)OCC2)N1CCC(Oc2cncnc2)CC1 (racemic) [Example 34, 5-((1-(1-(2,3-dihydrobenzofuran-6-yl)ethyl)piperidin-4-yl)oxy)pyrimidine] | 0.05 to 0.2 µM
4 | CC(c1ccc2c(c1)OCC2)N1CCC(NC(=O)Cc2ccc(C#N)cc2)CC1 (racemic) [Example 26, 2-(4-cyanophenyl)-N-(1-(1-(2,3-dihydrobenzofuran-6-yl)ethyl)piperidin-4-yl)acetamide] | 0.05 to 0.2 µM
5 | CC(c1ccc2c(c1)OCC2)N1CCC(Oc2ncc(S(C)(=O)=O)cn2)CC1 (racemic) [Example 36, 2-((1-(1-(2,3-dihydrobenzofuran-6-yl)ethyl)piperidin-4-yl)oxy)-5-(methylsulfonyl)pyrimidine] | 0.05 to 0.2 µM
6 | CC(c1ccc2c(c1)OCC2)N1CCC(C(=O)NCc2ccc(S(C)(=O)=O)cc2)CC1 (racemic) [Example 22, 1-(1-(2,3-dihydrobenzofuran-6-yl)ethyl)-N-(4-(methylsulfonyl)benzyl)piperidine-4-carboxamide] | 0.2 to 1 µM
7 | CC(c1ccc2c(c1)OCC2)N1CCC(Oc2ccc(C#N)cn2)CC1 (racemic) [Example 33, 6-((1-(1-(2,3-dihydrobenzofuran-6-yl)ethyl)piperidin-4-yl)oxy)nicotinonitrile] | < 0.05 µM
8 | CC(c1ccc2c(c1)OCC2)N1CCC(Nc2cccnc2)CC1 (racemic) [Example 24, N-(1-(1-(2,3-dihydrobenzofuran-6-yl)ethyl)piperidin-4-yl)pyridin-3-amine] | 0.05 to 0.2 µM
9 | CC(c1ccc2scnc2c1)N1CCC(Oc2cccnc2)CC1 (single isomer, unassigned) [Example 31, (S)-5-(1-(4-(pyridin-3-yloxy)piperidin-1-yl)ethyl)benzo[d]thiazole or (R)-5-(1-(4-(pyridin-3-yloxy)piperidin-1-yl)ethyl)benzo[d]thiazole] | < 0.05 µM
10 | CC(c1ccc2c(c1)OCC2)N1CCC(Oc2cccnc2)CC1 (single isomer, unassigned) [Example 28] | < 0.05 µM
11 | CC(c1ccc2c(c1)OCC2)N1CCC(Oc2ncccn2)CC1 (racemic) [Example 37, 2-((1-(1-(2,3-dihydrobenzofuran-6-yl)ethyl)piperidin-4-yl)oxy)pyrimidine] | 0.2 to 1 µM
12 | COc1cc(OC2CCN(C(C)c3ccc4c(c3)OCC4)CC2)ccn1 (racemic) [Example 29, 4-((1-(1-(2,3-dihydrobenzofuran-6-yl)ethyl)piperidin-4-yl)oxy)-2-methoxypyridine] | < 0.05 µM
13 | CC(c1ccc2c(c1)OCC2)N1CCC(Oc2cccnn2)CC1 (racemic) [Example 38, 3-((1-(1-(2,3-dihydrobenzofuran-6-yl)ethyl)piperidin-4-yl)oxy)pyridazine] | 0.2 to 1 µM
14 | CC(c1ccc2c(c1)OCO2)N1CCN(C(=O)Nc2ccccc2)CC1 (racemic) [Example 19, 4-(1-(benzo[d][1,3]dioxol-5-yl)ethyl)-N-phenylpiperazine-1-carboxamide] | 0.2 to 1 µM
15 | CC(c1ccc2c(c1)OCC2)N1CCC(NC(=O)Cc2ccc(C(F)(F)F)cc2)CC1 (racemic) [Example 27, N-(1-(1-(2,3-dihydrobenzofuran-6-yl)ethyl)piperidin-4-yl)-2-(4-(trifluoromethyl)phenyl)acetamide] | 0.05 to 0.2 µM
16 | CC(c1ccc2c(c1)OCC2)N1CCC(C(=O)NCc2ccc(C#N)cc2)CC1 (racemic) [Example 21, N-(4-cyanobenzyl)-1-(1-(2,3-dihydrobenzofuran-6-yl)ethyl)piperidine-4-carboxamide] | 0.2 to 1 µM
17 | CC(c1ccc2c(c1)OCC2)N1CCC(C(=O)NCc2ccc(C(F)(F)F)cc2)CC1 (racemic) [Example 23, 1-(1-(2,3-dihydrobenzofuran-6-yl)ethyl)-N-(4-(trifluoromethyl)benzyl)piperidine-4-carboxamide] | 0.2 to 1 µM
18 | CC(c1ccc2c(c1)OCC2)N1CCC(Oc2ccc(S(C)(=O)=O)cn2)CC1 (racemic) [Example 30, 2-((1-(1-(2,3-dihydrobenzofuran-6-yl)ethyl)piperidin-4-yl)oxy)-5-(methylsulfonyl)pyridine] | < 0.05 µM
19 | CC(c1ccc2c(c1)OCO2)N1CCN(C(=O)Nc2ccc(Cl)cc2)CC1 (racemic) [Example 20, 4-(1-(benzo[d][1, 3]dioxol-5-yl)ethyl)-N-(4-chlorophenyl)piperazine-1-carboxamide] | 0.2 to 1 µM
20 | CC(c1ccc2c(c1)OCC2)N1CCC(OCc2cccnc2)CC1 (racemic) [Example 35, 3-(((1-(1-(2,3-dihydrobenzofuran-6-yl)ethyl)piperidin-4-yl)oxy)methyl)pyridine] | 0.05 to 0.2 µM
21 | CC(c1ccc2c(c1)OCC2)N1CCC(NC(=O)Cc2ccc(S(C)(=O)=O)cc2)CC1 (racemic) [Example 25, N-(1-(1-(2,3-dihydrobenzofuran-6-yl)ethyl)piperidin-4-yl)-2-(4-(methylsulfonyl)phenyl)acetamide] | < 0.05 µM
22 | CC(c1ccc2c(c1)OCC2)N1CCC(Oc2cccnc2)CC1 (racemic) [Example 32, 3-((1-(1-(2,3-dihydrobenzofuran-6-yl)ethyl)piperidin-4-yl)oxy)pyridine] | < 0.05 µM
